The term pKi denotes −log10 of the Ki, conventionally taken in molar units. High values mean a low Ki, low ones a high Ki. By pEC50 is commonly meant the negative decadic logarithm of the EC50, by convention in mol/L.

pEC50, pKi: −log10 of the molar value. A value given as a limit tells only on which side of the number the result lay.

Among the data in BindingDB's records for doi:10.1021/acs.jmedchem.8b01183 (2018) are Ki and EC50 values, retold here.

The target in experiment [1] is Kappa-type opioid receptor (Cavia porcellus, UniProt P41144). The experiment can be described thus: Displacement of [3H]U-69,593 from KOR in guinea pig brain membranes incubated for 120 mins by scintillation counting method. Background: In a radioligand displacement assay an active substance lowers the binding of a labelled ligand.
The target in experiment [2] is Sigma non-opioid intracellular receptor 1 (Cavia porcellus, UniProt Q60492). Put plainly: Displacement of [3H]-(+)-pentazocine from sigma1 receptor in guinea pig brain cortex membranes incubated for 120 mins by scintillation counting method.
Experiment [3] has as its target T1, Sigma intracellular receptor 2 (Rattus norvegicus, UniProt Q5U3Y7).
T1 sequence (Q5U3Y7 whole entry): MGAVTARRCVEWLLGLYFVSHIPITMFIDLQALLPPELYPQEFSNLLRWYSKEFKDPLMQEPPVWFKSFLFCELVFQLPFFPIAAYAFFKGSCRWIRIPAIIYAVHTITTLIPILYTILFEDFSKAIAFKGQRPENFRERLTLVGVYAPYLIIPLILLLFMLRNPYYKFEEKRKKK
The experiment can be described thus: Displacement of [3H]-di-o-tolylguanidine from sigma2 receptor in rat liver membranes incubated for 120 mins by scintillation counting method.

Experiment [4] addresses Mu-type opioid receptor (Cavia porcellus, UniProt P97266). The experiment can be described thus: Displacement of [3H]DAMGO from MOR in guinea pig brain membranes incubated for 120 mins by scintillation counting method.
In experiment [5] the target is Delta-type opioid receptor (Rattus norvegicus, UniProt P33533). Put plainly: Displacement of [3H]DPDPE from DOR in rat brain membranes incubated for 120 mins by scintillation counting method.
Experiment [6] concerns the target Mu-type opioid receptor (Homo sapiens, UniProt P35372). The experiment can be described thus: Agonist activity at human MOR expressed in CHOK1 cells assessed as reduction in forskolin-induced intracellular cAMP increase after 45 mins by HTRF analysis. (In general: In TR-FRET formats the signal depends on donor and acceptor labels being close together.)

Delta-type opioid receptor, sequence (P33533 whole entry): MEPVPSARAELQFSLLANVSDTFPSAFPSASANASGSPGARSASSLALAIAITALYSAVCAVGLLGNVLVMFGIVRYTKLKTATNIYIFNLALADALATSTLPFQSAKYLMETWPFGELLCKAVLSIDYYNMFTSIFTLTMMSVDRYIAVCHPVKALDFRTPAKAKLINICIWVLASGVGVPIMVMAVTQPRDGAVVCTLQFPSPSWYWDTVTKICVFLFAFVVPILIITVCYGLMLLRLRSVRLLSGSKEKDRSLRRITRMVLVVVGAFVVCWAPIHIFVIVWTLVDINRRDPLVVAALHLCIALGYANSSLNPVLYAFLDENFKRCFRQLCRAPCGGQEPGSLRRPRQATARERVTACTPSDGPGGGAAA
Sigma non-opioid intracellular receptor 1, sequence (Q60492 whole entry): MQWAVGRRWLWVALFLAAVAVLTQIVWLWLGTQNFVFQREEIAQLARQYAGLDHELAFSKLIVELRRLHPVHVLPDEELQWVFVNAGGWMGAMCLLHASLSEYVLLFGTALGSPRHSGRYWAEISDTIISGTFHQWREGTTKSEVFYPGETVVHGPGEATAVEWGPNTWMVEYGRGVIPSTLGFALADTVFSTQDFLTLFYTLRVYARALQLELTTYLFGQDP
Kappa-type opioid receptor, sequence (P41144 whole entry): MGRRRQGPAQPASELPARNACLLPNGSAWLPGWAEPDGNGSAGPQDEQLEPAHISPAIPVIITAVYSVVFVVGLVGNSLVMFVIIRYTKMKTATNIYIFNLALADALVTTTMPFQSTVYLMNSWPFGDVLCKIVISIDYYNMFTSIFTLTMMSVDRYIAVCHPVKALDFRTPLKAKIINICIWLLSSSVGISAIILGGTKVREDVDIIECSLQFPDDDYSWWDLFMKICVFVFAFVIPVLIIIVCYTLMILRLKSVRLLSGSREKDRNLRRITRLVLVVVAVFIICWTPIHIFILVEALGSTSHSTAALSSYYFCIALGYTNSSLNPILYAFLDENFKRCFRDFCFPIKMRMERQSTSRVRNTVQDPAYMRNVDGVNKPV
Mu-type opioid receptor (Homo sapiens, UniProt P35372), sequence (P35372 whole entry): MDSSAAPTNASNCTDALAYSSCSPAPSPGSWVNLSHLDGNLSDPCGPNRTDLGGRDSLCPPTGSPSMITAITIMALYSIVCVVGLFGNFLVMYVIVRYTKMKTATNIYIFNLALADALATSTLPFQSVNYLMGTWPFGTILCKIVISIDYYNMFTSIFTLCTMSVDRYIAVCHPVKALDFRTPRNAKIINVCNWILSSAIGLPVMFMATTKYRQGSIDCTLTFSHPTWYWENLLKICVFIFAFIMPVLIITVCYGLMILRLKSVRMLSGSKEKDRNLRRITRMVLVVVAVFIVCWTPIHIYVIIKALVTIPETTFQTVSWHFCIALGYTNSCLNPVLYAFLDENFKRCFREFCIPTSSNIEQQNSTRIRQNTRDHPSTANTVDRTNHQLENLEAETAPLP
Mu-type opioid receptor (Cavia porcellus, UniProt P97266), sequence (P97266 whole entry): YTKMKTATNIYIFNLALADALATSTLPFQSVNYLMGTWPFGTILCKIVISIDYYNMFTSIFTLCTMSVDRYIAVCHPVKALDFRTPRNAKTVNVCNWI

Consider `FCC[C@H]1Cc2ccccc2C2(CCC(N3CCN(C4CCCCC4)CC3)CC2)O1` (stereo partly specified), for which the pKi in experiment [1] was under 6.00. Consider `CCOC(=O)C[C@@H]1Cc2ccccc2C2(CCC(N3CCc4cc(OC)c(OC)cc4C3)CC2)O1` (stereo partly specified), for which the pKi in experiment [2] and in experiment [3] was under 6.00 in each case. In the case of `COc1cc2c(cc1OC)CN(C1CCC3(CC1)O[C@H](CCO)Cc1ccccc13)CC2` (stereo partly specified), the pKi in experiment [2] and in experiment [3] was under 6.00 throughout. With `COc1cc2c(cc1OC)CN(C1CCC3(CC1)O[C@@H](CCO)Cc1ccccc13)CC2` (stereo partly specified), the negative logarithm of the Ki (pKi) in experiment [2] and in experiment [3] was under 6.00 in each case. For the compound `COc1cc2c(cc1OC)CN(C1CCC3(CC1)O[C@@H](CCF)Cc1ccccc13)CC2` (stereo partly specified), the negative logarithm of the Ki (pKi) in experiment [2] was under 6.00; in experiment [3] it was 6.30.

As to `Cc1ccc(CNC2CCC3(CC2)O[C@H](CCO)Cc2ccccc23)c(C)c1` (stereo partly specified), in experiment [2], the negative logarithm of the Ki (pKi) was under 6.00. Regarding `FCC[C@@H]1Cc2ccccc2C2(CCC(N3CCN(C4CCCCC4)CC3)CC2)O1` (stereo partly specified), the pKi in experiment [4] was under 6.00; in experiment [1], under 6.00; in experiment [5] it was under 6.00; in experiment [2] it was 7.92.

`Cc1ccc(CNC2CCC3(CC2)O[C@@H](CCF)Cc2ccccc23)c(C)c1` (stereo partly specified) had a pKi in experiment [3] of under 6.00.

As for `CO[C@@H]1Cc2ccccc2C2(CCC(NCc3ccccc3)CC2)O1` (stereo partly specified), the pKi in experiment [3] is under 6.00. In the case of `COc1cc2c(cc1OC)CN(C1CCC3(CC1)O[C@@H](OC)Cc1ccccc13)CC2` (stereo partly specified), the negative logarithm of the Ki (pKi) in experiment [2] was under 6.00. `CCOC(=O)C[C@@H]1Cc2ccccc2C2(CCC(NCc3ccc(C)cc3C)CC2)O1` (stereo partly specified): in experiment [2], the negative-log Ki (pKi) was under 6.00. `O[C@@H]1Cc2ccccc2C2(CCC(N3CCN(C4CCCCC4)CC3)CC2)O1` (stereo partly specified) showed a pKi in experiment [3] of 6.52. Take `OCC[C@H]1Cc2ccccc2C2(CCC(N3CCN(C4CCCCC4)CC3)CC2)O1` (stereo partly specified): the negative logarithm of the Ki (pKi) in experiment [3] was 6.30. For `Cc1ccc(CNC2CCC3(CC2)O[C@H](CCF)Cc2ccccc23)c(C)c1` (stereo partly specified), the negative logarithm of the Ki (pKi) was under 6.00 in experiment [2] and 6.52 in experiment [3]. As to `O[C@H]1Cc2ccccc2C2(CCC(N3CCN(C4CCCCC4)CC3)CC2)O1` (stereo partly specified), the pKi in experiment [4] and in experiment [5] was under 6.00 throughout. Further, the pEC50 in experiment [6] is under 5.00. `COc1cc2c(cc1OC)CN(C1CCC3(CC1)O[C@H](CCF)Cc1ccccc13)CC2` (stereo partly specified) had a negative-log Ki (pKi) in experiment [3] of under 6.00. In the case of `CO[C@@H]1Cc2ccccc2C2(CCC(NC3CCc4ccccc4CC3)CC2)O1` (stereo partly specified), the negative-log Ki (pKi) in experiment [2] was under 6.00. In experiment [3], `CO[C@H]1Cc2ccccc2C2(CCC(NCCCc3cn(-c4ccc(F)cc4)c4ccccc34)CC2)O1` (stereo partly specified) showed a pKi of under 6.00.

Regarding `CCOC(=O)C[C@H]1Cc2ccccc2C2(CCC(N3CCN(C4CCCCC4)CC3)CC2)O1` (stereo partly specified), the negative-log EC50 (pEC50) in experiment [6] was under 5.00. In addition, the figures for the pKi in experiment [1], in experiment [5] and in experiment [2] were under 6.00, under 6.00 and 7.92, respectively. Consider `CO[C@@H]1Cc2ccccc2C2(CCC(NCCCc3cn(-c4ccc(F)cc4)c4ccccc34)CC2)O1` (stereo partly specified), for which the negative logarithm of the Ki (pKi) in experiment [2] and in experiment [3] was under 6.00 each time. With `COc1cc2c(cc1OC)CN(C1CCC3(CC1)O[C@@H](O)Cc1ccccc13)CC2` (stereo partly specified), the pKi in experiment [2] and in experiment [3] was under 6.00 each time. `CO[C@H]1Cc2ccccc2C2(CCC(NCc3ccc(C)cc3C)CC2)O1` (stereo partly specified) had a pKi in experiment [2] of under 6.00.

In experiment [2], `CCOC(=O)C[C@H]1Cc2ccccc2C2(CCC(N3CCc4cc(OC)c(OC)cc4C3)CC2)O1` (stereo partly specified) showed a pKi of under 6.00.

For the compound `Cc1ccc(CNC2CCC3(CC2)O[C@@H](O)Cc2ccccc23)c(C)c1` (stereo partly specified), the pKi in experiment [2] was under 6.00. The compound `CCOC(=O)C[C@@H]1Cc2ccccc2C2(CCC(N3CCN(C4CCCCC4)CC3)CC2)O1` (stereo partly specified) had a negative-log Ki (pKi) in experiment [2] of 7.92.

On to `CO[C@H]1Cc2ccccc2C2(CCC(NCc3ccccc3)CC2)O1` (stereo partly specified), for which, in experiment [3], the negative logarithm of the Ki (pKi) is under 6.00.
